In the supplement of paper PMC10307832 one finds relative viability data, which are given here for 1 cell line.

What all share (test): relative viability (nuclei count vs DMSO), 5 days (fraction); higher = more cells survive
Compound in the test “Selisistat + Pictilisib”: C1CC(C2=C(C1)C3=C(N2)C=CC(=C3)Cl)C(=O)N [Selisistat] + CS(=O)(=O)N1CCN(Cc2cc3nc(-c4cccc5[nH]ncc45)nc(N4CCOCC4)c3s2)CC1 [Pictilisib] (partner 1 µM)
In outline: (§1)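 Lung cancer cell lines in 1536-well plates got either a single drug or a fixed anchor-drug dose together with five library-drug doses (not always all listed) in √10 steps, by pin tool, on the day after seeding. Nuclei were counted after 5 days, and relative viability is the treated-to-vehicle ratio of nuclei counts. Values are medians of duplicate plates.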

Compound in the test “Serdemetan + Foretinib”: c1ccc2c(CCNc3ccc(Nc4ccncc4)cc3)c[nH]c2c1 [Serdemetan] + COc1cc2c(Oc3ccc(NC(=O)C4(C(=O)Nc5ccc(F)cc5)CC4)cc3F)ccnc2cc1OCCCN1CCOCC1 [Foretinib] (partner 0.25 µM)
The procedure, abridged:
as §1

Compound in the test “Serdemetan + Lapatinib”: c1ccc2c(CCNc3ccc(Nc4ccncc4)cc3)c[nH]c2c1 [Serdemetan] + CS(=O)(=O)CCNCc1ccc(-c2ccc3ncnc(Nc4ccc(OCc5cccc(F)c5)c(Cl)c4)c3c2)o1 [Lapatinib] (partner 2 µM)
The procedure, abridged:
as §1

Compound in the test “Serdemetan + Vorinostat”: c1ccc2c(CCNc3ccc(Nc4ccncc4)cc3)c[nH]c2c1 [Serdemetan] + O=C(CCCCCCC(=O)Nc1ccccc1)NO [Vorinostat] (partner 1 µM)
The procedure, abridged: as §1

Take UMC-11: the relative viability was found to be 0.793 in the test with Selisistat + Pictilisib (first compound 0.4 µM); 0.784 with Selisistat + Pictilisib (first compound 1.265 µM); 0.618 in the test with Selisistat + Pictilisib (first compound 4 µM); 0.742 with Selisistat + Pictilisib (first compound 12.65 µM); 0.809 in the test with Selisistat + Pictilisib (first compound 40 µM); 0.919 with Serdemetan + Foretinib (first compound 0.04 µM). Besides, the relative viability with Serdemetan + Foretinib (first compound 0.1265 µM) is 1.02; with Serdemetan + Foretinib (first compound 4 µM), 0.828; with Serdemetan + Lapatinib (first compound 0.04 µM), 0.953; with Serdemetan + Lapatinib (first compound 0.1265 µM) it was 0.915; with Serdemetan + Lapatinib (first compound 0.4 µM), 1.03; in the test with Serdemetan + Lapatinib (first compound 1.265 µM), 0.703. The relative viability with Serdemetan + Lapatinib (first compound 4 µM) was determined as 0.886; with Serdemetan + Vorinostat (first compound 0.04 µM) it was 0.412; in the test with Serdemetan + Vorinostat (first compound 0.1265 µM), 0.445; with Serdemetan + Vorinostat (first compound 0.4 µM) it was 0.37; with Serdemetan + Vorinostat (first compound 1.265 µM), 0.268; with Serdemetan + Vorinostat (first compound 4 µM), 0.335.
